Source: patent publication US20030087830A1, “Low molecular weight components of cartilage, complexes of metals with amino acids, DI-peptides and analogs thereof; processes for preparation and therapeutic uses thereof” (priority 2001, published 2003)

What was measured:
[1] = system: Lewis lung carcinoma clone M27; assay: Lewis Lung Carcinoma metastatic mouse model (LLC); assay type: in vivo, C57BL/10 female mice; conditions: 2.5 mg/kg, intraperitoneal daily for two weeks; lung surface metastases
Description: The Lewis Lung Carcinoma mouse model (LLC) was used to determine the ability of different test samples to inhibit the formation of metastases within the lung. The Lewis lung carcinoma clone M27, with a high metastatic potential to the lung, was established by Dr P. Brodt (Brodt P, Characterization of two highly metastatic variants of Lewis lung carcinoma with different organ specificities. Cancer Res., 46: 2442, 1986). This model is well established and is known for its predictive correlation between in vitro and in vivo activity. Briefly, LLC cells were transplanted subcutaneously in the axillary region of the right flank of C57BL/10 female mice (Charles River Inc.) When the primary tumor reached a size of 0.5-1.0 cm^3 (day 10 post-inoculation), the tumor was carefully separated from the surrounding healthy tissues. Treatment with different test samples started the day following tumor removal (day 11 post-inoculation). Saline or different test samples were administered daily for two weeks by intraperitoneal injection (0.2 ml of each dose). As previous experiments had shown that a period of approximately two weeks after removal of the primary tumor was sufficient to obtain an average of 30 to 50 nodules on the lung surface, animals were sacrificed in a CO2 chamber two weeks later. Following autopsy, both lungs were removed, weighed and fixed in 10% Bouin's fixative. Lung surface metastases were counted using a stereomicroscope (4×).

C6 glioblastoma cells = assay: C6 glioblastoma cell proliferation; assay type: cell-based, rat; conditions: 48 hours; free amino acids and Glu-Trp 2.5 mM, CuCl2 1.25 mM
Method: (§1) Endothelial and tumor cell proliferation assays were performed to determine the ability of test samples to inhibit endothelial cell proliferation (antiangiogenic activity), normal cell proliferation,and tumor cell proliferation.
(§2) Endothelial cells (Human umbilical vein endothelial cells (HUVEC), bovine aortic endothelial cells (BAEC)), skeletal muscle cells, human dermal fibroblasts (all from Clonetics, Walkersville, Md.) were respectively maintained in EBM-2, MDEM, SKGM and FGFM-2 complete media according to manufacturer's instructions. Tumor rat glioblastoma cell line (C6) was maintained in DMEM (Sigma, Oaksville, Ontario) supplemented with 10% fetal calf serum (FCS) and antibiotics in 5% CO2. Briefly, cells seeded in 96-well sterile tissue culture dishes were treated with increasing concentrations of different test samples for a period of 48 hours at 37° C. Cell number was then evaluated by a calorimetric assay using the cell proliferation reagent tetrazolium salt and the fluorimetric assay using DNA dye (Hoescht) according to the procedure established by the manufacturer (Boehringer Mannhein). The conversion of these tetrazolium salts into formazan occurs only in metabolically active cells. The percentage of cell inhibition was determined by comparison to untreated cells.

[2] = system: Endothelial cells (HUVEC, BAEC); assay: Endothelial cell proliferation; assay type: cell-based, human / bovine; conditions: 48 hours; copper equivalent; NA = less than 50% at 1.25 mM copper equivalent; read-out: EC proliferation (EC50 mM)
Method: as §1, §2
According to the endothelial cell proliferation assay, the relative effectiveness of two compounds is compared by reference to the EC50 thereof. The EC50 is the concentration of compound at which the number of endothelial cells is reduced by 50% as compared to control. The efficacy of the test samples in EVT is established by the percent of eggs with altered angiogenesis at a given inhibitor dose of 0.6 mg of copper equivalent (see FIG. 6 for examples). A comparison of the antiangiogenic activity of the compounds of the present invention with divalent metal salts (CuCl2, MgCl2, ZnCl2, CoCl2) and uncoupled alpha-amino acids, alpha-imino acids, dipeptides, and nitrogenated molecules comprising a carboxylic acid group, such as creatine, is provided to illustrate that the formation of the amino acid-copper complex gives rise to complexes having antiangiogenic activity.

C6 glioblastoma (EC50 (mM)) (C6 glioblastoma cells): Non-active
Substance: L-Asp Cu L-Asp [Compound 6]
Antimetastatic activity (% inhibition) (at 2.5 mg/kg of Cu-complex) [1]: 26.9%
EC50 [2]: 0.29 mM
